One compound from US20080233242A1, “Antioxidant of Bamboo Leaves and Its Uses” (priority 2003, published 2008) can be followed below.

The subject of this assay is lipid oxidation in Jinhua ham. Briefly: Antioxidation and sensory quality of Jinhua ham slices (AV, POV, chromatic aberration). The note with it: ham slice soaked 2 min in 0.03% solution, stored at 50±1° C. for 11 days, versus control group. The procedure:
AOB was dissolved in water to produce a 0.03% solution, TBHQ (previously dissolved in ethanol) in the same concentration as control. A slice of Jinhua ham with a thickness of 1 cm was soaked for 2 min, and the effects of AOB on antioxidation and sensory quality of the slice of Jinhua ham were compared.

Regarding `CC(C)(C)c1cc(O)ccc1O` [TBHQ, tert-butyl hydroquinone], the “lipid oxidation (AV and POV)” value is “significantly inhibited”.
